Experimental data: the NIST ThermoML archive (doi:10.1021/je900093h)

Test: molar heat capacity at saturation pressure
Settings: Vacuum adiabatic calorimetry

CCCCCCCCCC(=O)OCC [ethyl decanoate]
Settings | molar heat capacity [J/K/mol]
204.7 K, Crystal | 251.8
205.19 K, Crystal | 252
205.24 K, Crystal | 252.1
205.57 K, Crystal | 252.3
206.25 K, Crystal | 253.2
206.66 K, Crystal | 253.6
207.14 K, Crystal | 254
207.19 K, Crystal | 254
207.62 K, Crystal | 254.3
208.2 K, Crystal | 255.2
208.63 K, Crystal | 255.4
209.09 K, Crystal | 255.7
209.14 K, Crystal | 255.7
209.67 K, Crystal | 256.4
210.15 K, Crystal | 257
210.59 K, Crystal | 257.3
211.04 K, Crystal | 257.6
211.09 K, Crystal | 257.8
211.71 K, Crystal | 258.4
212.1 K, Crystal | 259
212.56 K, Crystal | 259.1
212.98 K, Crystal | 259.7
213.04 K, Crystal | 259.7
213.75 K, Crystal | 260.3
214.05 K, Crystal | 261
214.52 K, Crystal | 261.2
214.93 K, Crystal | 261.7
214.99 K, Crystal | 261.6
215.78 K, Crystal | 262.5
215.99 K, Crystal | 263.2
216.49 K, Crystal | 263.3
216.87 K, Crystal | 263.9
216.93 K, Crystal | 263.7
217.81 K, Crystal | 264.8
217.93 K, Crystal | 265.3
218.46 K, Crystal | 265.4
218.81 K, Crystal | 266.1
218.87 K, Crystal | 265.9
219.84 K, Crystal | 267.1
219.87 K, Crystal | 267.5
220.42 K, Crystal | 267.6
220.75 K, Crystal | 268.4
220.81 K, Crystal | 268.3
221.82 K, Crystal | 269.7
221.86 K, Crystal | 269.6
222.39 K, Crystal | 270
222.68 K, Crystal | 270.8
222.75 K, Crystal | 270.5
223.76 K, Crystal | 272.3
223.88 K, Crystal | 272.1
224.36 K, Crystal | 272.5
224.61 K, Crystal | 273.3
224.69 K, Crystal | 272.9
225.69 K, Crystal | 274.9
225.89 K, Crystal | 274.9
226.33 K, Crystal | 275.1
226.54 K, Crystal | 276.1
226.62 K, Crystal | 275.6
227.62 K, Crystal | 277.6
227.9 K, Crystal | 277.8
228.29 K, Crystal | 277.8
228.46 K, Crystal | 278.4
228.54 K, Crystal | 278.3
229.55 K, Crystal | 280.1
229.89 K, Crystal | 280.6
230.26 K, Crystal | 280.8
230.47 K, Crystal | 280.9
232.23 K, Crystal | 284
232.58 K, Crystal | 284.3
234.19 K, Crystal | 287.3
234.97 K, Crystal | 289
236.16 K, Crystal | 291.1
237.29 K, Crystal | 294.1
238.11 K, Crystal | 296.8
239.59 K, Crystal | 301
240.07 K, Crystal | 303
241.85 K, Crystal | 310.4
244.07 K, Crystal | 325.4
246.21 K, Crystal | 353.6
254.4 K, Liquid | 386.7
255.37 K, Liquid | 387
256.65 K, Liquid | 387.2
257.1 K, Liquid | 387.4
257.94 K, Liquid | 387.5
258.76 K, Liquid | 387.7
259.18 K, Liquid | 387.9
260.12 K, Liquid | 388.2
260.59 K, Liquid | 388.3
261.71 K, Liquid | 388.7
262.29 K, Liquid | 388.9
262.56 K, Liquid | 388.9
264.24 K, Liquid | 389.3
264.47 K, Liquid | 389.5
264.54 K, Liquid | 389.4
266.52 K, Liquid | 390
266.65 K, Liquid | 390.1
266.77 K, Liquid | 390.1
268.5 K, Liquid | 390.8
268.83 K, Liquid | 390.8
269.31 K, Liquid | 391
270.48 K, Liquid | 391.6
271.01 K, Liquid | 391.6
271.84 K, Liquid | 391.9
272.46 K, Liquid | 392.3
273.19 K, Liquid | 392.4
274.38 K, Liquid | 392.9
274.44 K, Liquid | 393
275.37 K, Liquid | 393.2
276.42 K, Liquid | 393.8
276.91 K, Liquid | 394
277.55 K, Liquid | 394.1
278.4 K, Liquid | 394.5
279.45 K, Liquid | 394.9
279.73 K, Liquid | 394.9
280.38 K, Liquid | 395.3
281.91 K, Liquid | 396
281.98 K, Liquid | 396.1
282.36 K, Liquid | 396.2
284.09 K, Liquid | 396.8
284.34 K, Liquid | 397.1
284.52 K, Liquid | 397.2
286.27 K, Liquid | 397.8
286.32 K, Liquid | 397.8
287.05 K, Liquid | 398.3
288.3 K, Liquid | 398.7
288.45 K, Liquid | 398.8
289.59 K, Liquid | 399.4
290.28 K, Liquid | 399.7
290.63 K, Liquid | 399.9
292.13 K, Liquid | 400.5
292.26 K, Liquid | 400.7
292.81 K, Liquid | 401
294.23 K, Liquid | 401.6
294.66 K, Liquid | 401.8
294.99 K, Liquid | 401.9
296.21 K, Liquid | 402.5
297.17 K, Liquid | 403.1
297.19 K, Liquid | 403
298.19 K, Liquid | 403.4
299.72 K, Liquid | 404.3
300.16 K, Liquid | 404.4
302.14 K, Liquid | 405.5
302.25 K, Liquid | 405.6
304.12 K, Liquid | 406.5
304.78 K, Liquid | 406.9
306.09 K, Liquid | 407.7
307.31 K, Liquid | 408.3
308.07 K, Liquid | 408.7
309.83 K, Liquid | 409.6
310.05 K, Liquid | 409.6
312.02 K, Liquid | 410.7
312.36 K, Liquid | 411
314 K, Liquid | 411.8
314.88 K, Liquid | 412.3
315.98 K, Liquid | 412.8
317.41 K, Liquid | 413.8
317.96 K, Liquid | 414
319.93 K, Liquid | 415
319.94 K, Liquid | 415
321.92 K, Liquid | 416.3
322.45 K, Liquid | 416.4
323.9 K, Liquid | 417.2
324.96 K, Liquid | 417.7
325.88 K, Liquid | 418.2
327.48 K, Liquid | 419.3
327.86 K, Liquid | 419.2
329.84 K, Liquid | 420.3
330 K, Liquid | 420.6
331.82 K, Liquid | 421.5
332.51 K, Liquid | 422
333.8 K, Liquid | 422.7
335.02 K, Liquid | 423.5
335.78 K, Liquid | 424
337.54 K, Liquid | 424.9
337.76 K, Liquid | 425.1
339.74 K, Liquid | 426.2
340.05 K, Liquid | 426.4
341.72 K, Liquid | 427.3
342.56 K, Liquid | 428
343.7 K, Liquid | 428.7
345.06 K, Liquid | 429.5
345.68 K, Liquid | 429.8
347.57 K, Liquid | 430.9
347.66 K, Liquid | 431
349.64 K, Liquid | 432.2
350.07 K, Liquid | 432.4
351.62 K, Liquid | 433.3
352.57 K, Liquid | 433.9
353.61 K, Liquid | 434.3
355.06 K, Liquid | 435.2
355.59 K, Liquid | 435.6
357.56 K, Liquid | 436.8
357.57 K, Liquid | 436.8
359.55 K, Liquid | 438
360.05 K, Liquid | 438.2
362.54 K, Liquid | 439.8
365.03 K, Liquid | 441.4
367.52 K, Liquid | 443
